# Results taken from EP0671905B1, “STABLE PROTEIN: PHOSPHOLIPID COMPOSITIONS AND METHODS” (Amgen Inc., priority 1993, dated 1995).
# How the values were obtained:
# [1] = Tryptophan fluorescence emission spectra of protein:lipid complexes; type: physicochemical; conditions: mole ratio lipid:rhG-CSF 100:1
# Experimental: There are two tryptophan residues in rhG-CSF that are quite sensitive to local environmental conditions. Therefore, analysis was performed to determine the rhG-CSF tryptophan fluorescence when the rhG-CSF is contacted with a liposome. […] An excellent review of tryptophan fluorescence analysis is […], by J. Lakowicz, Chap 11 (Plenum Press, New York, 1983).
# Tryptophan fluorescence of the G-CSF:lipid complexes (as described above) was assayed by exciting the samples at 280 nm and while scanning the emission from 285 nm to 420 nm in 1nm increments at a rate of 1 nm/sec. The sample volume was 3 ml and the final concentration of G-CSF was 0.2 mg/ml for all samples. The lipid:G-CSF ratios varied. All fluorescence measurements were carried out using a PTI Alphascan fluorometer (South Brunswick, NJ). All measurements were performed at 25°C and this temperature was maintained through the use of a water-jacketed cuvette holder connected to a circulating water bath. Emission spectra were collected and analyzed using the data software provided by PTI.
# In this example, the ability of rhG-CSF to interact with other phospholipids was determined using comparisons of F/FO intensity and emission maximums as described above. In each instance, the mole ratio of lipid:rhG-CSF was 100:1.
# In this example, chemically modified G-CSF (pegylated G-CSF (PEG-G-CSF)) and G-CSF obtained as a product of eucaryotic host cell expression (CHO-G-CSF) were tested for their ability to interact with negatively charged lipid vesicles. For the CHO-G-CSF, the determinations were made using comparisons of F/FO intensity and emission maximums (as described in Example 1 above). In each instance, the mole ratio of lipid:protein was 100:1. For the PEG-G-CSF, the determination was based upon circular dichroism analysis.
# [2] = test system: murine bone marrow cells; test: In vitro activity: G-CSF dependent uptake of [3H]-thymidine by bone marrow cells; type: cell-based; conditions: lipid mixed with rhG-CSF, lipid:protein ratio 100:1; control untreated rhG-CSF without lipid
# Experimental: In this example, the effect of the rhG-CSF:DOPG interaction as it relates to the biological activity of rhG-CSF was determined. The in vitro activity of rhG-CSF was assayed utilizing the G-CSF dependent uptake of [^3H]-thymidine by murine bone marrow cells as described in Zsebo et al., Immunobiology 172: 175-184 (1986). All activity assays were performed in triplicate. In vivo activity was determined by subcutaneous injection of hamsters (rhG-CSF dose of 100 µg/kg) and measurements of white blood cell (WBC) count.
# After heating to 85°C for 10 minutes, rhG-CSF has undetectable activity and the protein precipitates. […] B. The ability of various lipids to stabilize rhG-CSF during freeze drying was also studied. Samples of rhG-CSF in combination with various lipids were freeze dried and assayed (as described above) for activity.
# [3] = Circular dichroism at 222 nm, thermal stability and temperature cycling; type: physicochemical; conditions: for effect on secondary structure of rhG-CSF (circular dichroism): 150:1 lipid:rhG-CSF ratio, heated to 95°C and cooled to 10°C; for thermal stability of GM-CSF (circular dichroism): lipid:GM-CSF ratio 17:1, PBS pH 7.0, heated to 90°C and cooled to 10°C
Structure (SMILES),effect on emission maximum and fluorescence intensity of rhG-CSF [1],retention of rhG-CSF bioactivity after freeze drying [2],insertion of rhG-CSF into lipid vesicles (F/FO and emission maximum) [1],effect on secondary structure of rhG-CSF (circular dichroism) [3],thermal stability of GM-CSF (circular dichroism) [3]
"CCCCCCCCCCCCCC(=O)OC[C@H](COP(=O)([O-])OCC[N+](C)(C)C)OC(=O)CCCCCCCCCCCCC [DMPC, reference compound]",little if no effect,,,,
"CCCCCCCCCCCCCC(=O)OCC(COP(=O)(O)OCC(O)CO)OC(=O)CCCCCCCCCCCCC (centres unmarked) [DMPG, dimyristoylphosphatidylglycerol]",,~100%,can insert,stabilize the secondary structure of rhG-CSF,recovery of secondary structure after heating
"CCCCCCCC/C=C\CCCCCCCC(=O)OC[C@H](COP(=O)([O-])OCC[N+](C)(C)C)OC(=O)CCCCCCC/C=C\CCCCCCCC [DOPC, reference compound]",little if no effect,,,,
"CCCCCCCC/C=C\CCCCCCCC(=O)OC[C@H](COP(=O)(O)OCC(O)CO)OC(=O)CCCCCCC/C=C\CCCCCCCC (some centres unmarked) [DOPG, dioleoylphosphatidylglycerol]",,~100%,can insert,,
"CCCCCCCCCCCCCCCC(=O)OC[C@H](COP(=O)([O-])OCC[N+](C)(C)C)OC(=O)CCCCCCCCCCCCCCC [DPPC, reference compound]",little if no effect,,,,
"CCCCCCCCCCCCCCCC(=O)OCC(COP(=O)(O)OCC(O)CO)OC(=O)CCCCCCCCCCCCCCC (centres unmarked) [DPPG, dipalmitoylphosphatidylglycerol]",,~100%,can insert,stabilize the secondary structure of rhG-CSF,recovery of secondary structure after heating
CCCCCCCCC=CCCCCCCCC(=O)OCC(COP(=O)(O)OCCNC(=O)CCCC(=O)O)OC(=O)CCCCCCCC=CCCCCCCCC (centres unmarked) [NG-DOPE],,,improved insertion of the rhG-CSF than DOPE,,
